# Reference: patent US7833698B2, “Method for determining the response to cancer therapy” (Ventana Medical Systems, Inc., priority 2000, dated 2010)
# How the values were obtained:
# Assay type in all cases: cell-based, human
# MCF7 cells [1] = test: SA-β-Gal staining of drug-treated MCF7 cells; details: treated 2-3 days with 50 nM doxorubicin or Taxol, stained 10-11 days after release from the drug
# Experimental: Cells were washed in PBS, fixed for 3-5 minutes at room temperature in 2% formaldehyde and 0.2% glutaraldehyde (or in 3% formaldehyde alone), washed, and incubated at 37° C. in fresh senescence-associated β-Gal (SA-β-Gal) staining solution (1 mg/ml 5-bromo-4-chloro-3-indolyl β-D-galactoside (X-Gal), 20 mg/ml dimethylformamide; 40 mM citric acid/sodium phosphate, pH 6.0; 5 mM potassium ferrocyanide; 5 mM potassium ferricyanide; 150 mM NaCl; 2 mM MgCl2. Staining was evident following 2-4 hours of incubation and maximal staining was reached after in 12-16 hours. To detect lysosomal β-Gal, the staining solution was prepared with citric acid/sodium phosphate at pH 4.0 (Baselga et al., 1999, Proceedings of AACR NCI EORTC International Conference, Abstract 98).
# Red and green filters are suitable for practice of the invention. For SA-β-Gal, a green filter (500 nm) is used to determine the total cytoplasmic area stained with red eosin and compared with the blue area stained for SA-β-Gal (600 nm) as determined using a red filter. […] It is recognized that there are various other staining or optical enhancement methods and filtering methods which can be used to optically enhance one particular area or feature over another cell feature (such as Fast green and eosin).
# Cellular changes are induced by treatment with moderate doses of doxorubicin and Taxol in breast tumor-derived human cell lines. […]
# MCF7 cells [2] = test: Flow cytometric analysis of drug-treated MCF7 cells; details: 50 nM, 2-3 days
# Experimental: Cellular changes are induced by treatment with moderate doses of doxorubicin and Taxol in breast tumor-derived human cell lines. MCF7 cells were treated for 2-3 days with 50 nM doxorubicin or Taxol (doses that induce growth inhibition and cellular death as measured by flow cytometry; as described by, e.g., Dolbeare et al., 1983, Proc. Natl. Acad. Sci. U.S.A. 80:5573-77) and then were stained for SA-β-Gal expression 10-11 days after release from the drug.
# MCF7 cells [3] = test: p53 and p21CIPI/WAF1 immunostaining with image analysis in MCF7 cells; details: MCF7 treated for 3 days with doxorubicin
# Source text: The expression of proteins associated with senescence or apoptosis are quantitated by image analysis using a suitable primary antibody (such as Ab-2 for p53, or Ab-1 for WAF1, HSP60, or caspase 3), secondary antibody (such as rabbit anti-mouse IgG), and tertiary ABC complex.
# Tertiary ABC complexes are visualized by treating the sections with diaminobenizidine (DAB) stain under appropriate conditions. In a second step, the tissue is counterstained with another optical enhancement factor, preferably ethyl green. The resulting preparation has green nuclei with varying degrees of brown diaminobenzidine (DAB) precipitate localized to the nuclei (and indicating the level of expression of p53, p21, p16, WAF1, HSP60, or caspase-3 protein). […] Spectral studies have shown that the ethyl green stain offers good spectral separation from the DAB precipitate of the immunoperoxidase technique such that different features of the image can be readily separated by filtering at two different wavelengths. […]
# MCF7 cells were treated for 3 days with doxorubicin and then stained for p53 and p21^CIPI/WAF1 expression. Cells were cultured, stained, and analyzed as described above for SA-β-Gal using appropriate antibodies.
SMILES,Percentage of Cells Expressing SA-β-Gal (MCF7 cells [1]) [%],Cellular outcome in flow cytometry histogram / SA-β-Gal+ morphology (MCF7 cells [2]),Cells stained for p21CIPI/WAF1 (% Cells) (MCF7 cells [3]),Cells stained for p53 (% Cells) (MCF7 cells [3])
CC(=O)O[C@H]1C(=O)[C@@]2(C)[C@H]([C@H](OC(=O)c3ccccc3)[C@]3(O)C[C@H](OC(=O)[C@H](O)[C@@H](NC(=O)c4ccccc4)c4ccccc4)C(C)=C1C3(C)C)[C@]1(OC(C)=O)CO[C@@H]1C[C@@H]2O [Taxol],13,apoptosis is evident by the hypodiploid peak,,
"COc1cccc2c1C(=O)c1c(O)c3c(c(O)c1C2=O)C[C@@](O)(C(=O)CO)C[C@@H]3O[C@H]1C[C@H](N)[C@H](O)[C@H](C)O1 [Doxorubicin, doxorubicin]",24,"resulted in senescence and blocks at G1, G2, and G2M",50.81 ± 6,23.93 ± 7
